From patent US20130109682A1, “CYCLIC ETHER COMPOUNDS USEFUL AS KINASE INHIBITORS” (NOVARTIS AG, priority 2010, published 2013) come the findings set out here.

Structures are written as SMILES. Some results are limits rather than exact numbers.

The target in one test is PIM1 (Homo sapiens, UniProt P11309). Nature of the test: KinaseGlo Pim1 ATP depletion assay. In kind it is biochemical. Summed up:
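2.5 nM PIM1 preincubated 15 min with compound and 40 μM BAD peptide in 50 mM HEPES pH 7.5, 5 mM MgCl2, 1 mM DTT, 0.05% BSA, 2.5% DMSO. The reaction was started with 20 μM ATP (final) and run to about 50% ATP depletion. Remaining ATP read by KinaseGlo Plus luminescence to give IC50.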

Test [1] deals with KMS11 (human myeloma cell line). Description: Cell proliferation assay (CellTiter-Glo), KMS11. In kind it is cell-based. As to conditions: Homo sapiens, KMS-11; KMS11-Luc cells. Summed up:
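KMS11 cells in IMDM with 10% FBS and sodium pyruvate, seeded at 2000 cells/well on assay day. Compound added at 2× to equal volume of cells, incubated 3 days at 37° C. Viability read by CellTiter-Glo luminescence; EC50 derived.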
Background: In ATP-based viability assays light output follows the ATP content of the culture.

Another test has as its target GSK3β (Homo sapiens, UniProt P49841). Description: GSK3β ATP depletion assay. In kind it is biochemical. The following applies: read-out: GSK3b IC50. Summed up: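 Human GSK3β (5 nM) preincubated 15 min with 10 μM biotinylated phospho-CREB peptide in pH 7.5 Tris buffer (15 mM MgCl2, 1 mM DTT, 0.1% BSA, 2.5% DMSO). Reaction started with 2 μM ATP and run to about 50% ATP depletion. Remaining ATP measured by KinaseGlo luminescence.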

The target in the next test is PIM3 (Homo sapiens, UniProt Q86V86). Description: KinaseGlo Pim3 ATP depletion assay. In kind it is biochemical. The gist of the method: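 Kinase was preincubated 15 min with BAD peptide in HEPES pH 7.5/MgCl2/DTT/BSA before ATP was added. Final concentrations were 40 μM ATP, 100 μM BAD peptide and 2.5% DMSO, with 5 nM enzyme. The reaction ran to ~50% ATP depletion and remaining ATP was read by KinaseGlo Plus luminescence.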

For the next test, the target named is PIM2 (Homo sapiens, UniProt Q9P1W9). Description: KinaseGlo Pim2 ATP depletion assay. It is filed as biochemical. The gist of the method: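 Luminescent ATP-depletion read-out of PIM2 phosphorylating BAD peptide (RSRHSSYPAGT-OH). Final conditions: 5 nM PIM2, 4 μM ATP, 10 μM peptide, 2.5% DMSO in 50 mM HEPES pH 7.5, 5 mM MgCl2, 1 mM DTT, 0.05% BSA. Enzyme–peptide preincubated 15 min with compound; reaction run to ~50% ATP depletion.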
Chain of PIM2 (Q9P1W9 whole entry): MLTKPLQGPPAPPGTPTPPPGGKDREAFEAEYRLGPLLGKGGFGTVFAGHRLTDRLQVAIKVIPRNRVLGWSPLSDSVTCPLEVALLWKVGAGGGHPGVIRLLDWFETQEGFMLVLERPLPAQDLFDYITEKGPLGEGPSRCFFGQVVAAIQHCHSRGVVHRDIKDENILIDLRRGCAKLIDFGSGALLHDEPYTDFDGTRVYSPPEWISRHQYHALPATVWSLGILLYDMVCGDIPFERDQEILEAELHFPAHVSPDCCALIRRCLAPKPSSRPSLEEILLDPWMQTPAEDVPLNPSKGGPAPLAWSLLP
(Kinase-Glo measures the ATP left after a reaction by luminescence.)

Chain of GSK3β (P49841 whole entry, species assumed): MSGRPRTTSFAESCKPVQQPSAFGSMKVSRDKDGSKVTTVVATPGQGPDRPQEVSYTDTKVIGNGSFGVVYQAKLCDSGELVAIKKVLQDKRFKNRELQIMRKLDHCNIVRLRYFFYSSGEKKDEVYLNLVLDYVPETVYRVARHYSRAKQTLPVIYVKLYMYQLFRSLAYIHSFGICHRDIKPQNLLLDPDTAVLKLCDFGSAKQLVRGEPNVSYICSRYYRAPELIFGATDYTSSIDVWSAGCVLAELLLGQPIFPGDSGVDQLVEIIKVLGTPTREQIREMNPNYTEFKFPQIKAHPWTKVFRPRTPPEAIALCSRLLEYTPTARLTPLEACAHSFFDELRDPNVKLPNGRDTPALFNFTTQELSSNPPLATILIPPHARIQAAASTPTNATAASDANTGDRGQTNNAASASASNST
Chain of PIM1 (P11309 whole entry): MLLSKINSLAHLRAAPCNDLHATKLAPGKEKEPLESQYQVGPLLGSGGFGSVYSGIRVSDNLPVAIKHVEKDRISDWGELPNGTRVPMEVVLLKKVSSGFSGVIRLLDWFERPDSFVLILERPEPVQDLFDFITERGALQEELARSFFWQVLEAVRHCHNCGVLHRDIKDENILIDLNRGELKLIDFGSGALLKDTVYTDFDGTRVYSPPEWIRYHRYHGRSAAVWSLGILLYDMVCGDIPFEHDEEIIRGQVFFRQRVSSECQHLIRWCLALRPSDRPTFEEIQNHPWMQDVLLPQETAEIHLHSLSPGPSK

Turning to `Nc1cc(F)c(-c2ccccc2F)nc1C(=O)Nc1cnccc1[C@H]1C[C@@H](O)[C@H](O)[C@@H](CCl)O1` [Example 38, 3-amino-N-(4-((2R,4R,5S,6S)-6-(chloromethyl)-4,5-dihydroxytetrahydro-2H-pyran-2-yl)pyridin-3-yl)-5-fluoro-6-(2-fluorophenyl)picolinamide], the IC50 was 0.001 µM against PIM1, 0.015 µM at GSK3β, 0.002 µM against PIM3 and 0.003 µM against PIM2. Besides, in test [1], the EC50 stood at 6.9 µM.

Take `CC[C@H]1O[C@@H](c2ccncc2NC(=O)c2nc(-c3c(F)cccc3F)sc2N)C[C@@H](O)[C@@H]1O` [Example 40, 5-amino-2-(2,6-difluorophenyl)-N-(4-((2R,4R,5S,6R)-6-ethyl-4,5-dihydroxytetrahydro-2H-pyran-2-yl)pyridin-3-yl)thiazole-4-carboxamide]: the IC50 was found to be 0.001 µM against PIM1, 0.002 µM on GSK3β, 0.002 µM at PIM3 and 0.002 µM against PIM2. In test [1], a half-maximal response (EC50) required 0.6 µM.

Regarding `CC[C@H]1O[C@@H](c2ccncc2NC(=O)c2csc(-c3c(F)cccc3F)n2)C[C@@H](O)[C@@H]1O` [Example 41, 2-(2,6-difluorophenyl)-N-(4-((2R,4R,5S,6R)-6-ethyl-4,5-dihydroxytetrahydro-2H-pyran-2-yl)pyridin-3-yl)thiazole-4-carboxamide], the 50% inhibitory concentration (IC50) against PIM1 was 0.001 µM; on GSK3β, 0.017 µM; against PIM3, 0.007 µM; on PIM2, 0.065 µM. A half-maximal effect in test [1] (EC50) was put at 9.9 µM.

Take `CC[C@H]1O[C@@H](c2ccncc2NC(=O)c2nc(-c3ccccc3F)c(F)cc2N)C[C@@H](O)[C@@H]1O` [Example 42, 3-amino-N-(4-((2R,4R,5S,6R)-6-ethyl-4,5-dihydroxytetrahydro-2H-pyran-2-yl)pyridin-3-yl)-5-fluoro-6-(2-fluorophenyl)picolinamide]: the IC50 on PIM1 turned out to be 0.001 µM; on GSK3β it was 0.023 µM; against PIM3, 0.001 µM; on PIM2, 0.003 µM. Besides, the EC50 in test [1] was 9.6 µM.

Consider `CC[C@H]1O[C@@H](c2ccncc2NC(=O)c2nc(-c3c(F)cccc3F)c(F)cc2N)C[C@@H](O)[C@@H]1O` [Example 43, 3-amino-6-(2,6-difluorophenyl)-N-(4-((2R,4R,5S,6R)-6-ethyl-4,5-dihydroxytetrahydro-2H-pyran-2-yl)pyridin-3-yl)-5-fluoropicolinamide], for which the half-maximal inhibitory concentration (IC50) at PIM1 was found to be 0.001 µM; at GSK3β, 0.188 µM; at PIM3 it was 0.001 µM; on PIM2, 0.001 µM. For the same compound, the EC50 in test [1] was determined as 1.7 µM.

`C=C[C@H]1OC(c2ccncc2NC(=O)c2ccc(F)c(-c3c(F)cccc3F)n2)=C[C@@H](O)[C@@H]1O` [Example 44, 6-(2,6-difluorophenyl)-N-(4-((2R,3S,4R)-3,4-dihydroxy-2-vinyl-3,4-dihydro-2H-pyran-6-yl)pyridin-3-yl)-5-fluoropicolinamide]: the IC50 at PIM1 is 0.001 µM; on GSK3β, 0.339 µM; against PIM3, 0.001 µM; against PIM2 it was 0.001 µM. The compound also had an EC50 in test [1] of 0.9 µM.

Turning to `N#CC[C@H]1O[C@@H](c2ccncc2NC(=O)c2ccc(F)c(-c3c(F)cccc3F)n2)CC[C@@H]1O` [Example 46, N-(4-((2R,5S,6R)-6-(cyanomethyl)-5-hydroxytetrahydro-2H-pyran-2-yl)pyridin-3-yl)-6-(2,6-difluorophenyl)-5-fluoropicolinamide], the IC50 against PIM1 is 0.007 µM; on GSK3β, 0.442 µM; at PIM3 it was 0.033 µM; against PIM2, 0.149 µM. Moreover, the EC50 in test [1] was above 10 µM.

Take `N#CC[C@H]1O[C@@H](c2ccncc2NC(=O)c2ccc(C#N)c(-c3c(F)cccc3F)n2)C[C@@H](O)[C@@H]1O` [Example 47, 5-cyano-N-(4-((2R,4R,5S,6R)-6-(cyanomethyl)-4,5-dihydroxytetrahydro-2H-pyran-2-yl)pyridin-3-yl)-6-(2,6-difluorophenyl)picolinamide]: the IC50 came to 0.058 µM against PIM1, 9.18 µM at GSK3β, 0.113 µM against PIM3 and 0.356 µM on PIM2. For the same compound, the 50% effective concentration (EC50) in test [1] is above 10 µM.

Consider `O=C(Nc1cnccc1[C@H]1C[C@H](Cl)[C@H](O)[C@@H](CCl)O1)c1ccc(F)c(-c2c(F)cccc2F)n1` [Example 55, N-(4-((2R,4S,5R,6S)-4-chloro-6-(chloromethyl)-5-hydroxytetrahydro-2H-pyran-2-yl)pyridin-3-yl)-6-(2,6-difluorophenyl)-5-fluoropicolinamide], for which the IC50 against PIM1 was 0.002 µM; at GSK3β it was 0.911 µM; against PIM3, 0.026 µM; against PIM2, 0.101 µM. In addition, the EC50 in test [1] was 5.5 µM.

For the compound `COC[C@H]1O[C@@H](c2ccncc2NC(=O)c2ccc(F)c(-c3c(F)cccc3F)n2)C[C@@H](O)[C@@H]1O` [Example 57, 6-(2,6-difluorophenyl)-N-(4-((2R,4R,5S,6R)-4,5-dihydroxy-6-(methoxymethyl)tetrahydro-2H-pyran-2-yl)pyridin-3-yl)-5-fluoropicolinamide], the IC50 is 0.019 µM on PIM1, 2 µM on GSK3β, 0.028 µM on PIM3 and 0.111 µM against PIM2. In addition, in test [1], the 50% effective concentration (EC50) worked out at 6.1 µM.

Take `O=C(Nc1cnccc1[C@H]1C[C@@H](O)CC2(CC2)O1)c1ccc(F)c(-c2c(F)cccc2F)n1` [Example 59, 6-(2,6-difluorophenyl)-5-fluoro-N-(4-((5R,7R)-7-hydroxy-4-oxaspiro[2.5]octan-5-yl)pyridin-3-yl)picolinamide]: the IC50 on PIM1 stood at 0.006 µM; at GSK3β it was 0.757 µM; against PIM3 it was 0.014 µM; against PIM2 it was 0.162 µM. The compound further had an EC50 in test [1] above 10 µM.

For `O=C(Nc1cnccc1[C@H]1C[C@@H](O)CC2(CC2)O1)c1csc(-c2c(F)cccc2F)n1` [Example 61, 2-(2,6-difluorophenyl)-N-(4-((5R,7R)-7-hydroxy-4-oxaspiro[2.5]octan-5-yl)pyridin-3-yl)thiazole-4-carboxamide], the IC50 against PIM1 was determined as 0.007 µM; on GSK3β, 0.065 µM; on PIM3, 0.02 µM; against PIM2 it was 0.599 µM. In addition, in test [1], the EC50 was above 10 µM.

For `O=C(Nc1cnccc1[C@@H]1C[C@H](O)CC2(CC2)O1)c1csc(-c2c(F)cccc2F)n1` [Example 62, 2-(2,6-difluorophenyl)-N-(4-((5S,7S)-7-hydroxy-4-oxaspiro[2.5]octan-5-yl)pyridin-3-yl)thiazole-4-carboxamide], the half-maximal inhibitory concentration (IC50) against PIM1 came to 0.002 µM; at GSK3β it was 0.027 µM; against PIM3 it was 0.015 µM; on PIM2, 0.321 µM. Moreover, the EC50 in test [1] is above 10 µM.

On to `C[C@H]1O[C@@H](c2ccncc2NC(=O)c2ccc(F)c(-c3c(F)cccc3F)n2)[C@H](F)C(=O)[C@]1(C)O` [Example 72, 6-(2,6-difluorophenyl)-5-fluoro-N-(4-((2S,3S,5R,6R)-3-fluoro-5-hydroxy-5,6-dimethyl-4-oxotetrahydro-2H-pyran-2-yl)pyridin-3-yl)picolinamide], for which the IC50 against PIM1 was 0.001 µM; at GSK3β, 0.385 µM; against PIM3 it was 0.006 µM; at PIM2 it was 0.015 µM. This compound also returned a concentration for a half-maximal effect (EC50) in test [1] of 1.5 µM.

For `CC[C@@]1(O)[C@H](C)O[C@H](c2ccncc2NC(=O)c2ccc(F)c(-c3c(F)cccc3F)n2)C[C@@H]1O` [Example 73, 6-(2,6-difluorophenyl)-N-(4-((2S,4S,5S,6S)-5-ethyl-4,5-dihydroxy-6-methyltetrahydro-2H-pyran-2-yl)pyridin-3-yl)-5-fluoropicolinamide], the half-inhibitory concentration (IC50) on PIM1 came to 0.01 µM; at GSK3β, 3.23 µM; against PIM3, 0.2 µM; against PIM2 it was 1.11 µM. The compound further registered a half-maximal effective concentration (EC50) in test [1] above 10 µM.

As to `CC[C@H]1O[C@@H](c2ccncc2NC(=O)c2ccc(F)c(-c3c(F)cccc3F)n2)C[C@@H](O)[C@@H]1O` [Example 75, 6-(2,6-difluorophenyl)-N-(4-((2R,4R,5S,6R)-6-ethyl-4,5-dihydroxytetrahydro-2H-pyran-2-yl)pyridin-3-yl)-5-fluoropicolinamide], the IC50 amounted to 0.001 µM against PIM1, 0.228 µM at GSK3β, 0.002 µM on PIM3 and 0.004 µM on PIM2. The EC50 in test [1] stood at 2.2 µM.

Consider `O=C(Nc1cnccc1[C@@H]1C[C@@H](O)[C@H](O)[C@@H](CO)O1)c1ccc(F)c(-c2c(F)cccc2F)n1` [Example 78, 6-(2,6-difluorophenyl)-N-(4-((2S,4R,5S,6R)-4,5-dihydroxy-6-(hydroxymethyl)tetrahydro-2H-pyran-2-yl)pyridin-3-yl)-5-fluoropicolinamide], for which the IC50 was determined as 0.127 µM against PIM1, 5.82 µM on GSK3β, 0.151 µM against PIM3 and 2.52 µM against PIM2. In addition, in test [1], it took 1.5 µM to reach a half-maximal effect (EC50).

As a reminder, the IC50 is the concentration that gives 50% inhibition. In general, EC50 refers to the midpoint of the concentration-response curve. The low end stands for greater potency, the high end for weaker potency.
